The values that follow come from US20080070267A1, “Modulation Of Neurotransmitter Activity In Neurons” (The Regents of the University of California, priority 2004, published 2008).

Test [1] has as its system Ca^2+ spike activity of cultured embryonic spinal neurons. The test can be described thus: Suppression of spike activity in dissociated neuron cultures. The format is cell-based, Xenopus. The following applies: 2 mM Ca^2+ culture medium.
The subject of test [2] is myoballs expressing glutamate receptors (rGluR2). The test can be described thus: Whole-cell recording of spontaneous synaptic currents from myoballs expressing rGluR2 at neuronal growth cones. Type of test: cell-based, Xenopus. The following applies: myoballs expressing rGluR2 in contact with growth cones.

On to `CC(=O)OCOC(=O)CN(CC(=O)OCOC(C)=O)c1ccccc1OCCOc1ccccc1N(CC(=O)OCOC(C)=O)CC(=O)OCOC(C)=O` [BAPTA-AM, bis-(o-aminophenoxy)ethane-N,N,N,N-tetraacetic acid acetoxymethyl ester], for which the “spike activity in vitro” value in test [1] was “suppression of spike activity”.
Take `N#Cc1cc2c(cc1[N+](=O)[O-])=NC(=O)C(=O)N=2` [CNQX]: the “spontaneous synaptic currents (SSCs), glutamatergic” value in test [2] is listed as “blocked”.
